SMILES strings stand for the structures. Where only a bound is given, the exact number is not on record here.

The test system of one data set is 293 ATXN3/Q75-GFP cells. The experiment in a line: ATXN3/Q75 aggregation assay in 293 cells (high-content analysis). Type of data set: cell-based, human. The settings on record: 8 hr pretreatment, doxycycline and oxaliplatin 6 days. As to the method:
The isogenic ATXN3/[…]-75 cell line was employed, which was formed from subjecting the Flp-InTM-293 cells to targeting insertion of the pcDNA5/FRT/TO-ATXN3/[…] and […] recombinant plasmids. These cell lines were grown in medium containing 5 μg/mL blasticidin and 100 μg/mL hygromycin (InvivoGen). In addition, the method for culture in establishment of the human SH-SY5Y derived Flp-In host cell line and the formation of the isogenic ATXN3/[…]-75 cell line was the same. […] Then doxycycline (10 μg/mL, BD) and oxaliplatin (5 μM, Sigma) were added for 6 days.

Data set [1] deals with SH-SY5Y ATXN3/Q75-GFP cells. The experiment in a line: ATXN3/Q75 aggregation assay in retinoic acid-differentiated SH-SY5Y cells. The class given is cell-based, human. The note with it: one week. As to the method: Flp-InTM-293 cells derived from human 293 (Invitrogen) were cultured as described above. The isogenic ATXN3/[…]-75 cell line was employed, which was formed from subjecting the Flp-InTM-293 cells to targeting insertion of the pcDNA5/FRT/TO-ATXN3/[…] and […] recombinant plasmids. These cell lines were grown in medium containing 5 μg/mL blasticidin and 100 μg/mL hygromycin (InvivoGen). In addition, the method for culture in establishment of the human SH-SY5Y derived Flp-In host cell line and the formation of the isogenic ATXN3/[…]-75 cell line was the same. […] After that, cells were stained with Hoechst 33342 (0.1 μg/mL) and aggregation percentage was assessed as described.

Data set [2] in a line: MTT cytotoxicity assay in HEK-293 cells. Type of data set: cell-based. The settings on record: human, one day treatment. As for the experimental part: (§1) Cells (5×10^4/well in 48-well dishes) were cultivated at 37° C. incubator containing 5% CO2 for 20 hr and treated with different concentrations of the Gardenia jasminoides extract (5-30 mg/mL) or pure compound (100 nM-1 mM). After one day, 20 μL MTT (3,[4,5-dimethylthiazol-2-yl]-2,5-diphenyl-tetrazolium bromide, 5 mg/mL in PBS; Sigma-Aldrich) was added to cells and incubated for 2 hr. The absorbance of the purple formazan dye was measured at 570 nm by a Bio-Tek μQuant Universal Microplate Spectrophotometer.
For orientation: Formazan colour is commonly taken as a measure of viable cells.

Data set [3] can be described thus: MTT cytotoxicity assay in SH-SY5Y cells. Type of data set: cell-based. The settings on record: human, one day treatment. As for the experimental part:
as §1

A short description of data set [4]: 1,1-diphenyl-2-picryl hydrazyl (DPPH) radical scavenging assay. The note with it: for DPPH scavenging activity: 10-200 μM tested, data not shown. The class given is biochemical. As for the experimental part:
Then, the scavenging capacity was measured by monitoring the decrease in absorbance at 517 nm by a Thermo Scientific Multiskan GO Microplate Spectrophotometer.
A general note: Loss of DPPH colour is used to gauge radical scavenging.

Regarding `O=C(CCCCCCC(=O)Nc1ccccc1)NO` [SAHA, suberoylanilide hydroxamic acid, reference compound], the “ATXN3/Q75 aggregation as compared to untreated cells” value in the data set with 293 ATXN3/Q75-GFP cells (at 100 nM) is reported as 85.9%.
Consider `CC(/C=C/C=C(\C)C(=O)O[C@@H]1O[C@H](CO[C@@H]2O[C@H](CO)[C@@H](O)[C@H](O)[C@H]2O)[C@@H](O)[C@H](O)[C@H]1O)=C\C=C\C=C(C)\C=C\C=C(/C)C(=O)O[C@@H]1O[C@H](CO[C@@H]2O[C@H](CO)[C@@H](O)[C@H](O)[C@H]2O)[C@@H](O)[C@H](O)[C@H]1O` [crocin], for which the “ATXN3/Q75 aggregation as compared to untreated cells” value with 293 ATXN3/Q75-GFP cells (at 100 nM) is given as 81.5%. The “aggregation reduction in ATXN3/Q75 expressed neuronal cells” value (from here on “aggregation reduction in ATXN3/Q75”) in data set [1] (100 nM) was determined as 21%. Also, the IC50 (as a rule, the concentration needed to halve the response being measured) at 1 day in data set [2] was above 1000 µM; in data set [3], 970 µM.
With `COC(=O)C1=CO[C@@H](O)[C@@H]2C(CO)=CC[C@H]12` [genipin], the “aggregation reduction in ATXN3/Q75” value in data set [1] (500 nM) was 18%. Moreover, the figures for the 50% inhibitory concentration (IC50) at 1 day in data set [2] and in data set [3] were 580 µM and 100 µM, respectively. Besides, the DPPH scavenging activity entry in data set [4] is given as “no detectable DPPH scavenging activity”.
Consider `COC(=O)C1=CO[C@@H](O[C@@H]2O[C@H](CO)[C@@H](O)[C@H](O)[C@H]2O)[C@@H]2C(CO)=CC[C@H]12` [geniposide], for which, in the data set on 293 ATXN3/Q75-GFP cells (at 500 nM), the “ATXN3/Q75 aggregation as compared to untreated cells” value was 82.3%. In addition, the “aggregation reduction in ATXN3/Q75” value in data set [1] (500 nM) worked out at 21%. For the same compound, the IC50 at 1 day in data set [2] and in data set [3] was above 1000 µM in each case. In addition, the DPPH scavenging activity entry in data set [4] is listed as “no detectable DPPH scavenging activity”.
Take `O=c1c(O)c(-c2ccc(O)cc2)oc2cc(O)cc(O)c12` [kaempferol, reference compound]: the EC50 (usually the concentration that produces a half-maximal response) in data set [4] (100 μM DPPH, 30 min room temperature) worked out at 27 µM.
